The values below come from patent US9149509B2, “Methods for improving neurological outcome after neural injury and neurodegenerative disease” (HENRY FORD HEALTH SYSTEM, priority 2009, dated 2015).

The test system of test [1] is stroke (middle cerebral artery occlusion (MCAo)) rats. The experiment in a line: Embolic middle cerebral artery occlusion (MCAo) stroke model in rats. Type of test: in vivo, rat. The procedure: (§1) Effectiveness of treatment with thymosin β4 was tested in stroke (middle cerebral artery occlusion (MCAo)) rats and in experimental autoimmune encephalomyelitis (EAE) mice (a well-established in vivo model for multiple sclerosis). Both the stroke rats and the EAE mice were treated with 6 mg/kg thymosin β4 intraperitoneally (IP) in a volume of 0.3 mL twenty-four hours after stroke or after the day of immunization in the EAE model and then every three days (6 mg/kg IP) for four additional doses. An equal volume of saline was administered (IP) to a group of both stroke rats and EAE mice as a control. Bromodeoxyuridine (BrdU; 100 mg/kg) was administered (IP) daily for seven days, initiated 24 hours after MCAo to label proliferating cells. Behavioral tests (adhesive removable test and NSS (Neurological Severity Score)) were performed immediately before treatment and at days 1, 7, 14, 21, 28, 35, 42, 49, and 56 days after MCAo and up to 30 days in the EAE mouse model. All rats were sacrificed 56 days after MCAo; EAE mice were sacrificed at 30 days.

The subject of test [2] is experimental autoimmune encephalomyelitis (EAE) mice. The experiment in a line: Experimental autoimmune encephalomyelitis (EAE) mouse model of multiple sclerosis. The note with it: 6 mg/kg IP, up to 30 days, vs saline control, p<0.01, FIG. 9. Type of test: in vivo. As for the experimental part:
as §1

Where [3] appears, read: embolic stroke rats, 6 mg/kg IP, vs saline control.

Take thymosin β4: the “number of myelinated axons (Bielschowsky and Luxol Fast Blue staining)” value in test [1] (after MCAo, treated vs control, p<0.05, FIG. 4) is listed as “increased”. In addition, the “cellular proliferation (BrdU expression, number of BrdU immunoreactive cells)” value in test [1] (after MCAo, treated vs control, p<0.05, FIG. 8) was “increased”. Besides, the “number of oligodendrocyte progenitors and matured oligodendrocytes” value in test [1] (after MCAo, treated vs control, p<0.05, FIGS. 5-7) is reported as “increased”. Also, the “functional improvement in behavioral tests (adhesive removal test, NSS)” value in test [1] (beginning at 21 days after stroke onset, 6 mg/kg IP, p<0.05, FIG. 1-2) is “Significant functional improvement”. In addition, the “relative increase in BrdU expression in the striatum or myelinated region of the rat brain” value in test [1] (embolic stroke rats, 6 mg/kg IP 24 h after stroke, then every three days for four additional doses, sacrificed 56 days after MCAo) was determined as 42%. Besides, in test [1] (setting [3]), the “increase in CNP, a marker of mature oligodendrocytes” value worked out at 11% and the “increase in NG-2, a marker of immature oligodendrocytes” value turned out to be 47%. Moreover, in test [2], the functional neurological score entry is recorded as “robust improvement”.
